Measured values as given in ChEMBL document CHEMBL1127702, “A proposed model of bradykinin bound to the rat B2 receptor and its utility for drug design” (J Med Chem, 1994).
pKi: −log10 of the molar value. Where a SMILES comes first, the peptide text is derived from it. [ ]: non-standard residue; d: D form. Oic = O=C(O)[C@@H]1C[C@@H]2CCCC[C@@H]2N1; Hyp = O=C(O)[C@@H]1C[C@@H](O)CN1; dTic = O=C(O)[C@H]1Cc2ccccc2CN1

Assays:
Cavia porcellus = species on record: Cavia porcellus; assay: Compound was tested for bradykinin-induced contractions in guinea pig ileum; format: functional; settings: read-out: pA2 (converted)
B2 bradykinin receptor = biological target: T1, B2 bradykinin receptor (Cavia porcellus, UniProt O70526); assay: Binding affinity towards bradykinin receptor B2 using [3H]bradykinin
T1 sequence (O70526 whole entry): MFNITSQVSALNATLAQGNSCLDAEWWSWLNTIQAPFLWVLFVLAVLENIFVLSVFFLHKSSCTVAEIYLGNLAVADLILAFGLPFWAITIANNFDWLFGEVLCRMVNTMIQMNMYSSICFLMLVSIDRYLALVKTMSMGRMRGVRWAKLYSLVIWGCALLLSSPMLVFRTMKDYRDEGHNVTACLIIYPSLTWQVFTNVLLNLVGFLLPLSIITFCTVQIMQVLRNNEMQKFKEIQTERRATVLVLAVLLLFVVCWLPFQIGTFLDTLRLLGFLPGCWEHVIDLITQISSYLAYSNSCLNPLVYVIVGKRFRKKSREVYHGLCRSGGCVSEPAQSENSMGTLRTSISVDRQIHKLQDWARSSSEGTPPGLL

Q: NC(N)=NCCC[C@@H](N)C(=O)N[C@@H](CCCN=C(N)N)C(=O)N1CCC[C@H]1C(=O)N1C[C@H](O)C[C@H]1C(=O)NCC(=O)N[C@@H](Cc1ccccc1)C(=O)N[C@@H](CO)C(=O)N1Cc2ccccc2C[C@@H]1C(=O)N1[C@H](C(=O)N[C@@H](CCCN=C(N)N)C(=O)O)C[C@@H]2CCCC[C@@H]21 (H-[dR]RP[Hyp]GFS[dTic][Oic]R-OH) was tested. Which Kb (Cavia porcellus) did it give?
A: 1.58 nM

Q: And the pKi (B2 bradykinin receptor)?
A: 9.96
